# Data taken from the supplement of paper PMC4862054.
# How the values were obtained:
# CAL-85-1 [1] = conditions: 72 h
# Experimental: (§1)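 Drug sensitivity and resistance testing (DSRT) of breast cancer cell lines in 384-well plates, 5 concentrations in 10-fold dilutions over a compound-specific 10,000-fold range. After 72 h, cytotoxicity was read by CellTox Green fluorescence and viability by CellTiter-Glo luminescence (multiplexed), normalised to DMSO and benzethonium chloride controls. EC50 is the inflection point of the fitted dose-response curve (bottom asymptote free, so it can be relative for partial curves) and is censored at the highest tested concentration. Rows with DSS 0 (no meaningful response) were excluded.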
# CAL-51 [2] = conditions: 72 h
# Experimental: as §1
# BT-549 [3] = conditions: 72 h
# Experimental: as §1
# BT-474 [4] = conditions: 72 h
# Method in brief: (§2)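 Breast cancer cell lines in 20 µl suspension were seeded onto 384-well plates pre-loaded with compound dissolved in 5 µl medium, then incubated 72 h. For viability, 2.5 µl CellTiter-Blue was added for 2 h at 37 °C and fluorescence read at 560/590 nm. Each plate was normalised to vehicle and a positive kill control and checked by Z'-factor. EC50 comes from the fitted percent-inhibition dose-response curve, censored at the highest concentration; rows with zero drug sensitivity score were dropped.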
# CAL-85-1 [5] = conditions: 72 h; remark: listed apart in the source
# Method in brief: (§3)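 Two sequential readouts followed a 72 h incubation of breast cancer cell lines with compound at 5 concentrations in 10-fold steps over a compound-specific 10,000-fold range: CellTox Green fluorescence (485/520 nm) for cell death, then CellTiter-Glo luminescence, after 10 min at room temperature, for viability. Each plate was normalised to 0.1 % DMSO and a positive kill control. Dose-response curves were fitted for EC50, censored at the top concentration.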
# CAL-51 [6] = conditions: 72 h; remark: listed apart in the source
# Method in brief: as §3
# BT-549 [7] = conditions: 72 h; remark: listed apart in the source
# Method in brief: as §3
# BT-474 [8] = conditions: 72 h; remark: listed apart in the source
# Method in brief: as §3
# MDA-MB-468 [9] = conditions: 72 h
# Method in brief: as §3
# MDA-MB-468 [10] = conditions: 72 h; remark: listed apart in the source
# Experimental: as §1
# Hs578T [11] = conditions: 72 h
# Experimental: as §1
# MDA-MB-436 [12] = conditions: 72 h
# Experimental: as §1
# MDA-MB-453 [13] = conditions: 72 h
# Experimental: as §1
# HCC1599 [14] = conditions: 72 h
# Method in brief: as §3
# HDQ-P1 [15] = conditions: 72 h
# Method in brief: as §3
# MDA-MB-231 [16] = conditions: 72 h
# Method in brief: as §3
# CAL-120 [17] = conditions: 72 h
# Method in brief: as §3
# Hs578T [18] = conditions: 72 h; remark: listed apart in the source
# Method in brief: as §3
# MDA-MB-436 [19] = conditions: 72 h; remark: listed apart in the source
# Method in brief: as §3
# HCC1937 = conditions: 72 h
# Method in brief: as §3
# HDQ-P1 [20] = conditions: 72 h; remark: listed apart in the source
# Experimental: as §1
# MDA-MB-231 [21] = conditions: 72 h; remark: listed apart in the source
# Experimental: as §1
# CAL-120 [22] = conditions: 72 h; remark: listed apart in the source
# Experimental: as §1
# HCC1143 [23] = conditions: 72 h
# Method in brief: as §3
# MCF-10A = conditions: 72 h
# Method in brief: as §3
# MFM-223 [24] = conditions: 72 h
# Method in brief: as §3
# SK-BR-3 = conditions: 72 h
# Method in brief: as §3
# DU-4475 = conditions: 72 h
# Method in brief: as §3
# HDQ-P1 [25] = conditions: 72 h; remark: listed apart in the source
# Method in brief: as §2
# MFM-223 [26] = conditions: 72 h; remark: listed apart in the source
# Experimental: as §1
# BT-474 [27] = conditions: 72 h; remark: listed apart in the source
# Experimental: as §1
# CAL-148 [28] = conditions: 72 h
# Experimental: as §1
# CAL-148 [29] = conditions: 72 h; remark: listed apart in the source
# Method in brief: as §3
# MDA-MB-453 [30] = conditions: 72 h; remark: listed apart in the source
# Method in brief: as §3
# CAL-85-1 [31] = test: normalised response (% of control), CellTiter-Glo; higher = more viable cells (100 = DMSO, 0 = benzethonium chloride kill control); conditions: incubation time: 72 h
# Method in brief: (§4)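 After 72 h with compound in 384-well plates, breast cancer cell lines seeded as 20 µl suspension were read for CellTox Green fluorescence at 485/520 nm. CellTiter-Glo luminescence was then read after 10 min at room temperature. Compound was present at 5 concentrations in 10-fold steps over a 10,000-fold range set per compound, and plates were normalised to 0.1 % DMSO (100) and a positive kill control (0). Values are normalised signals, each at a single concentration.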
# CAL-51 [32] = test: as above; conditions: incubation time: 72 h
# Method in brief: as §4
# HCC1143 [33] = test: as above; conditions: incubation time: 72 h
# Method in brief: as §4
# HCC1599 [34] = test: as above; conditions: incubation time: 72 h
# Method in brief: as §4
# HDQ-P1 [35] = test: as above; conditions: incubation time: 72 h
# Method in brief: as §4
# Hs578T [36] = test: as above; conditions: incubation time: 72 h
# Method in brief: as §4
"EC50, CellTiter-Glo (BT-549 [7]) [nM]","EC50, CellTiter-Glo (BT-474 [8]) [nM]","EC50, CellTiter-Glo (MDA-MB-468 [9]) [nM]","EC50, CellTiter-Glo (MDA-MB-436 [19]) [nM]","EC50, CellTiter-Glo (HCC1937) [nM]",Structure (SMILES),"EC50, CellTox Green (CAL-51 [2]) [nM]","EC50, CellTiter-Glo (CAL-85-1 [5]) [nM]","EC50, CellTiter-Glo (CAL-51 [6]) [nM]","EC50, CellTox Green (MDA-MB-468 [10]) [nM]","EC50, CellTox Green (Hs578T [11]) [nM]","EC50, CellTiter-Glo (HDQ-P1 [15]) [nM]","EC50, CellTiter-Glo (CAL-120 [17]) [nM]","EC50, CellTiter-Blue viability (HDQ-P1 [25]) [nM]",also measured
38.2,808,31.4,,,C/C(=C\c1csc(C)n1)[C@@H]1C[C@@H]2O[C@]2(C)CCC[C@H](C)[C@H](O)[C@@H](C)C(=O)C(C)(C)[C@@H](O)CC(=O)N1 [Ixabepilone],38.4,660,23,,,,,,"EC50, CellTox Green (CAL-85-1 [1]): 437 nM; EC50, CellTox Green (BT-549 [3]): 10.8 nM; EC50, CellTiter-Blue viability (BT-474 [4]): 672 nM"
,,> 100000,,,CN(C)C(=N)NC(=N)N [Metformin],100,,360,710,,,,,
,7230,,1460,20.4,CN(Cc1cnc2nc(N)nc(N)c2n1)c1ccc(C(=O)N[C@@H](CCC(=O)O)C(=O)O)cc1 [Methotrexate],,2020,19.6,,11000,12.9,809,,"EC50, CellTox Green (CAL-85-1 [1]): > 50000 nM; EC50, CellTox Green (MDA-MB-436 [12]): 17900 nM; EC50, CellTox Green (MDA-MB-453 [13]): > 50000 nM; EC50, CellTiter-Glo (HCC1599 [14]): 17800 nM; EC50, CellTiter-Glo (MDA-MB-231 [16]): 6840 nM; EC50, CellTiter-Glo (Hs578T [18]): 29000 nM"
585,275,229,690,547,CO[C@@H]1[C@H](N(C)C(=O)c2ccccc2)C[C@H]2O[C@]1(C)n1c3ccccc3c3c4c(c5c6ccccc6n2c5c31)C(=O)NC4 [Midostaurin],29.6,831,308,384,997,465,275,1130,"EC50, CellTox Green (BT-549 [3]): 1060 nM; EC50, CellTox Green (HDQ-P1 [20]): 1970 nM; EC50, CellTox Green (MDA-MB-231 [21]): 193 nM; EC50, CellTox Green (CAL-120 [22]): 510 nM; EC50, CellTiter-Glo (HCC1143 [23]): 414 nM; EC50, CellTiter-Glo (MCF-10A): 130 nM; EC50, CellTiter-Glo (MDA-MB-231 [16]): 265 nM; EC50, CellTiter-Glo (MFM-223 [24]): 595 nM; EC50, CellTiter-Glo (SK-BR-3): 634 nM; EC50, CellTiter-Glo (DU-4475): 562 nM; EC50, CellTiter-Glo (Hs578T [18]): 254 nM"
1680,,3860,7150,,CO[C@@]12[C@H](COC(N)=O)C3=C(C(=O)C(C)=C(N)C3=O)N1C[C@@H]1N[C@@H]12 [Mitomycin C],307,2420,1140,27.6,> 10000,,> 10000,8560,"EC50, CellTox Green (HDQ-P1 [20]): > 10000 nM; EC50, CellTiter-Blue viability (BT-474 [4]): 2500 nM; EC50, CellTiter-Glo (SK-BR-3): > 10000 nM"
> 10000,1680,86.4,,> 10000,CC1(C)CCC(c2ccc(Cl)cc2)=C(CN2CCN(c3ccc(C(=O)NS(=O)(=O)c4ccc(N[C@H](CCN5CCOCC5)CSc5ccccc5)c(S(=O)(=O)C(F)(F)F)c4)cc3)CC2)C1 [Navitoclax],906,,1260,1740,,392,3900,27.4,"EC50, CellTox Green (CAL-85-1 [1]): 517 nM; EC50, CellTox Green (HDQ-P1 [20]): 289 nM; EC50, CellTox Green (MDA-MB-231 [21]): 162 nM; EC50, CellTox Green (MFM-223 [26]): 2200 nM; EC50, CellTox Green (BT-474 [27]): 1540 nM; EC50, CellTox Green (CAL-120 [22]): 884 nM; EC50, CellTox Green (CAL-148 [28]): 306 nM; EC50, CellTiter-Glo (MDA-MB-231 [16]): 774 nM; EC50, CellTiter-Glo (MFM-223 [24]): > 10000 nM; EC50, CellTiter-Glo (DU-4475): 2990 nM; EC50, CellTiter-Glo (CAL-148 [29]): 1000 nM; EC50, CellTiter-Glo (MDA-MB-453 [30]): 6680 nM"
> 10000,,,,,Cc1cn(-c2cc(NC(=O)c3ccc(C)c(Nc4nccc(-c5cccnc5)n4)c3)cc(C(F)(F)F)c2)cn1 [Nilotinib],,,32.6,,> 10000,,,,
,,,,,Cc1cn(-c2cc(NC(=O)c3ccc(C)c(Nc4nccc(-c5cccnc5)n4)c3)cc(C(F)(F)F)c2)cn1 [Nilotinib] (10000 nM),,,,,,,,,normalised response (CAL-85-1 [31]): 104%; normalised response (CAL-51 [32]): 86.3%; normalised response (HCC1143 [33]): 93%; normalised response (HCC1599 [34]): 119%; normalised response (HDQ-P1 [35]): 105%; normalised response (Hs578T [36]): 97.1%
,,,,,C=CCN(/C=C1/C(=O)O[C@H](COC)[C@@]2(C)C1=C(O)C(=O)C1=C2[C@H](OC(C)=O)C[C@]2(C)C(=O)CC[C@@H]12)CC=C [PX-866],,,,,,,,2170,"EC50, CellTiter-Blue viability (BT-474 [4]): 1680 nM"
,,,,,CC[C@H](CO)Nc1nc(NCc2ccccc2)c2ncn(C(C)C)c2n1 [Seliciclib],,,595,,,,,,
,,,,,C=CCN(/C=C1/C(=O)O[C@H](COC)[C@@]2(C)C1=C(O)C(=O)C1=C2[C@H](OC(C)=O)C[C@]2(C)C(=O)CC[C@@H]12)CC=C [Sonolisib],,,390,,,,,,
565,,9610,7630,> 10000,CC(C)n1cnc2c(NCCc3ccc(O)cc3)nc(-c3csc4ccccc34)nc21 [StemRegenin 1],,,,,,4790,,,"EC50, CellTox Green (MFM-223 [26]): 2810 nM; EC50, CellTox Green (BT-474 [27]): > 10000 nM; EC50, CellTiter-Glo (MFM-223 [24]): 2020 nM; EC50, CellTiter-Glo (MDA-MB-453 [30]): > 10000 nM"
,,,,,O=C(CCCCCCC(=O)Nc1ccccc1)NO [Vorinostat] (10000 nM),,,,,,,,,normalised response (CAL-85-1 [31]): 44.2%; normalised response (CAL-51 [32]): 22.8%; normalised response (HCC1143 [33]): 24.4%; normalised response (HCC1599 [34]): 8.35%; normalised response (HDQ-P1 [35]): 64.3%; normalised response (Hs578T [36]): 34%
